Test [1] relates to NC/Nga mice. The experiment in a line: Therapeutic study in DNCB-induced atopic dermatitis NC/Nga mice (treatment days 8-14). It counts as in vivo, mouse. An excerpt:
(§1) Atopic dermatitis (AD) was induced in specific pathogen-free (SPF) female NC/Nga mice (n=8/group), 8-12 weeks old, by repeated percutaneous applications of dinitrochlorobenzene (DNCB) to the dorsal skin of the ears and back on days 4, 7, 10, and 13. NC/Nga mice are an established mouse model for atopic dermatitis. See Suto et al. NC/Nga mice: a mouse model for atopic dermatitis; Int Arch Allergy Immunol. 1999; 120 Suppl 1:70-5; and Gao et al., Establishment of allergic dermatitis in NC/Nga mice as a model for severe atopic dermatitis, Biol. Pharm. Bull. 2004 September; 27(9): 1376-81.
(§2) A prophylactic study and a therapeutic study was conducted: • 1. Prophylactic study: 0.2% formulation (C1), 0.5% formulation (C2), RVT-501 placebo, tacrolimus placebo, 0.1% tacrolimus, or no treatment (AD control) on days 1-14 or sham-induction of AD. • 2. Therapeutic study: 0.2% formulation (C1), 0.5% formulation (C2), active ingredient placebo, tacrolimus placebo, 0.1% tacrolimus, or no treatment (AD control) on days 8-14.
(§3) Scratching assays were performed on days 2, 8, 11, 14 in both studies. Skin samples were harvested for histopathology and cytokine analysis on day 15. Histopathology of sham-induced versus DNCB-induced mouse skin indicates clear presence of atopic dermatitis.

The test system of test [2] is NC/Nga mice. The experiment in a line: Prophylactic study in DNCB-induced atopic dermatitis NC/Nga mice (treatment days 1-14). It is filed as in vivo, mouse. Particulars: skin sections day 15.
Source text: as §1, §2, §3

Consider `C=CC[C@@H]1/C=C(\C)C[C@H](C)C[C@H](OC)[C@H]2O[C@@](O)(C(=O)C(=O)N3CCCC[C@H]3C(=O)O[C@H](/C(C)=C/[C@@H]3CC[C@@H](O)[C@H](OC)C3)[C@H](C)[C@@H](O)CC1=O)[C@H](C)C[C@@H]2OC` [0.1% tacrolimus, tacrolimus], for which the scratching entry in test [1] (day 14) is reported as “significant decrease in scratching”. Besides, the “IL-1α, IL-1β, IL-4, IL-5, IL-10, IL-12(p40), IL-13, eotaxin, GM-CSF, KC, MCP-1, MIP-1α, MIP-1β, RANTES, and TNF-α in skin” value in test [1] (day 15) is reported as “significantly decreased”. Further, the AD lesion severity entry in test [1] (skin sections day 15) was “trended toward a reduction”. Moreover, the “AD lesions induced by DNCB at the microscopic level” value in test [2] is “attenuated AD lesions”.

(Values after patent publication US20210093637A1, “TOPICAL OINTMENT FORMULATIONS OF PDE-4 INHIBITOR AND THEIR USE IN TREATING SKIN CONDITIONS” (Dermavant Sciences GmbH, priority 2017, published 2021).)
